In BindingDB's records for patent US12384772 (Vivoryon Therapeutics, 2025):

What was measured:
[1] = target: T1, Glutaminyl-peptide cyclotransferase (Homo sapiens, UniProt Q16769); experiment: Inhibition Assay (pH 8.0)
Experimental: (§1) 10 mM compound stock solutions were prepared in DMSO. For IC50 determination compound stocks were serially diluted (1:3) in DMSO.All measurements were performed with an EnSpire Perkin Elmer multimode reader using glutaminyl-7-amino-4-methylcoumarin (H-Gin-AMC) as substrate and recombinant pyroglutamyl aminopeptidase (pGAP) as auxiliary enzyme. Reactions were carried out at ambient temperature in black 96-well half area microplates. Each sample consisted of 1 μl test compound solution or solvent (DMSO) and 49 μl QC appropriately diluted in assay buffer (50 mM Tris/HCl, pH 8.0 or 50 mM MES buffer, pH=6.0). After a 10 min preincubation at ambient temperature the enzyme reaction was started by adding 50 μl of Gln-AMC-substrate/pGAP mixture in assay buffer. Final substrate concentrations were 50 and 200 μM for measurement at pH 8.0 or 6.0, respectively. Release of flourogenic AMC were recorded at excitation/emission wavelengths of 380/460 nm. Initial velocity of the enzyme reaction was calculated by linear regression of the first 10 data points using the Enspire Manager software. Final evaluation and calculation of IC50s were performed using GraphPad Prism software.

[2] = target: T1, Glutaminyl-peptide cyclotransferase; experiment: Inhibition Assay (pH 6)
Experimental: as §1

T1 sequence (Q16769 whole entry): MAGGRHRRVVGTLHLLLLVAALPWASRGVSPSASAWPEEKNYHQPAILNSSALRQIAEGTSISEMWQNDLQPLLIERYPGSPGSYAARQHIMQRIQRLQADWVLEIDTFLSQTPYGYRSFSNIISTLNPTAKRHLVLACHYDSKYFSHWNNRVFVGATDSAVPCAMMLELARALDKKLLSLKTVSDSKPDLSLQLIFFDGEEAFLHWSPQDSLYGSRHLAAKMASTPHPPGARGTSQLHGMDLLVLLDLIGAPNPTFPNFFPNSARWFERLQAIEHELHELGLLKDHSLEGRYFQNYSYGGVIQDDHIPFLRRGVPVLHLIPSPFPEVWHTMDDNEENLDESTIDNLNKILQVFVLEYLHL

- Ki [1]: 5.18 µM
- Ki [2]: 8.05 µM
SMILES: CS(=O)(=NCc1ccc2[nH]cnc2c1)c1ccc(F)cc1 (configuration not stated) [US12384772, Compound 1285]
